Assays:
Test in all cases: Test D controlled growth environment herbicide test, pre- and postemergence
Assay type in all cases: in vivo
[1] = test system: Russian thistle (Salsola kali)
From the text: (§1) Seeds of plant species selected from bluegrass (annual bluegrass, Poa annua), blackgrass (Alopecurus myosuroides), Canada thistle (Cirsium arvense), canarygrass (Phalaris minor), chickweed (common chickweed, Stellaria media), geranium, cutleaf (cutleaf geranium, Geranium dissectum), galium (catchweed bedstraw, Galium aparine), bromegrass, downy (downy bromegrass, Bromus tectorum), field poppy (Papaver rhoeas), field violet (Viola arvensis), foxtail, green (green foxtail, Setaria viridis), deadnettle (henbit deadnettle, Lamium amplexicaule), ryegrass, Italian (Italian ryegrass, Lolium multiflorum), kochia (Kochia scoparia), lambsquarters (Chenopodium album), oilseed rape (Brassica napus), pigweed (Amaranthus retroflexus), chamomile (scentless chamomile, Matricaria inodora), Russian thistle (Salsola kali), speedwell (bird's-eye speedwell, Veronica persica), barley, spring (spring barley, Hordeum vulgare), wheat, spring (spring wheat, Triticum aestivum), buckwheat, wild (wild buckwheat, Polygonum convolvulus), mustard, wild (wild mustard, Sinapis arvensis), oat, wild (wild oat, Avena fatua), radish, wild (wild radish, Raphanus raphanistrum), windgrass (Apera spica-venti), barley, winter (winter barley, Hordeum vulgare), and wheat, winter (winter wheat, Triticum aestivum) were planted into a silt loam soil and treated preemergence with test chemicals formulated in a non-phytotoxic solvent mixture which included a surfactant.
(§2) At the same time, these species were planted in pots containing Redi-Earth® planting medium (Scotts Company, 14111 Scottslawn Road, Marysville, Ohio 43041) comprising spaghnum peat moss, vermiculite, wetting agent and starter nutrients and treated with postemergence applications of the test chemicals formulated in the same manner. Plants ranged in height from 2 to 18 cm (1- to 4-leaf stage). Treated plants and controls were maintained in a controlled growth environment for 14 to 21 d after which time all species were compared to controls and visually evaluated. Plant response ratings, summarized in Table D, are based on a scale of 0 to 100 where 0 is no effect and 100 is complete control. A dash (-) response means no test result.

[2] = test system: blackgrass (Alopecurus myosuroides)
From the text: as §1, §2

[3] = test system: canarygrass (Phalaris minor)
From the text: as §1, §2

[4] = test system: chickweed (common chickweed, Stellaria media)
From the text: as §1, §2

[5] = test system: deadnettle (henbit deadnettle, Lamium amplexicaule)
From the text: as §1, §2

[6] = test system: field violet (Viola arvensis)
From the text: as §1, §2

[7] = test system: foxtail, green (green foxtail, Setaria viridis)
From the text: as §1, §2

kochia (Kochia scoparia) = test system: kochia (Kochia scoparia)
From the text: as §1, §2

[8] = test system: lambsquarters (Chenopodium album)
From the text: as §1, §2

[9] = test system: ryegrass, Italian (Italian ryegrass, Lolium multiflorum)
From the text: as §1, §2

[10] = test system: wheat, spring (spring wheat, Triticum aestivum)
From the text: as §1, §2

[11] = test system: wheat, winter (winter wheat, Triticum aestivum)
From the text: as §1, §2

[12] = test system: windgrass (Apera spica-venti)
From the text: as §1, §2

[13] = Postemergence, 31 g ai/ha, scale 0 to 100 (0 no effect, 100 complete control)
[14] = Postemergence, 125 g ai/ha, visual rating on scale 0 (no effect) to 100 (complete control), 14 to 21 d
[15] = Postemergence, 250 g ai/ha, scale 0 to 100 (0 no effect, 100 complete control)
[16] = Preemergence, 62 g ai/ha, scale 0 to 100 (0 no effect, 100 complete control)
[17] = Preemergence, 125 g ai/ha, scale 0 to 100 (0 no effect, 100 complete control)
[18] = Preemergence, 250 g ai/ha, scale 0 to 100 (0 no effect, 100 complete control)
[19] = postemergence, 62 g ai/ha, scale 0 to 100, 0 no effect, 100 complete control

SMILES: CCC(=O)Oc1c(C)nn(C)c(=O)c1-c1c(C)sc2ccc(C)cc12 [Compound 42]
- Russian Thistle plant response rating [1, 13]: 70
- Plant response rating, Russian Thistle [1, 14]: 85
- Plant response rating, Russian Thistle [1, 15]: 90
- Plant response rating (scale of 0 to 100), Russian Thistle ([1]; Preemergence, 31 g ai/ha): 10
- Plant response rating, Russian Thistle [1, 16]: 15
- Plant response rating, Russian Thistle [1, 17]: 65
- Plant response rating, Russian Thistle [1, 18]: 75
- Plant response rating, Russian Thistle [1, 19]: 75
- Blackgrass plant response rating [2, 13]: 75
- Plant response rating, Blackgrass [2, 14]: 80
- Plant response rating, Blackgrass [2, 15]: 85
- Plant response rating (scale of 0 to 100), Blackgrass ([2]; Preemergence, 31 g ai/ha): 80
- Plant response rating, Blackgrass [2, 16]: 80
- Plant response rating, Blackgrass [2, 17]: 95
- Blackgrass plant response rating [2, 18]: 100
- Plant response rating, Blackgrass [2, 19]: 75
- Canarygrass plant response rating [3, 13]: 50
- Plant response rating, Canarygrass [3, 14]: 80
- Plant response rating, Canarygrass [3, 15]: 80
- Plant response rating (scale of 0 to 100), Canarygrass ([3]; Preemergence, 31 g ai/ha): 90
- Plant response rating, Canarygrass [3, 16]: 95
- Plant response rating, Canarygrass [3, 17]: 100
- Plant response rating, Canarygrass [3, 18]: 100
- Plant response rating, Canarygrass [3, 19]: 75
- Chickweed plant response rating [4, 13]: 95
- Plant response rating, Chickweed [4, 14]: 100
- Plant response rating, Chickweed [4, 15]: 100
- Plant response rating (scale of 0 to 100), Chickweed ([4]; Preemergence, 31 g ai/ha): 100
- Plant response rating, Chickweed [4, 16]: 100
- Plant response rating, Chickweed [4, 17]: 100
- Plant response rating, Chickweed [4, 18]: 100
- Plant response rating, Chickweed [4, 19]: 100
- Deadnettle plant response rating [5, 13]: 5
- Plant response rating, Deadnettle [5, 14]: 35
- Plant response rating, Deadnettle [5, 15]: 55
- Plant response rating (scale of 0 to 100), Deadnettle ([5]; Preemergence, 31 g ai/ha): 0
- Plant response rating, Deadnettle [5, 16]: 0
- Plant response rating, Deadnettle [5, 17]: 25
- Plant response rating, Deadnettle [5, 18]: 15
- Plant response rating, Deadnettle [5, 19]: 25
- Field Violet plant response rating [6, 13]: 70
- Plant response rating, Field Violet [6, 14]: 90
- Plant response rating, Field Violet [6, 15]: 90
- Plant response rating (scale of 0 to 100), Field Violet ([6]; Preemergence, 31 g ai/ha): 85
- Plant response rating, Field Violet [6, 16]: 95
- Plant response rating, Field Violet [6, 17]: 100
- Plant response rating, Field Violet [6, 18]: 100
- Plant response rating, Field Violet [6, 19]: 80
- Foxtail, Green plant response rating [7, 13]: 35
- Plant response rating, Foxtail, Green [7, 14]: 65
- Plant response rating, Foxtail, Green [7, 15]: 80
- Plant response rating (scale of 0 to 100), Foxtail, Green ([7]; Preemergence, 31 g ai/ha): 30
- Plant response rating, Foxtail, Green [7, 16]: 65
- Plant response rating, Foxtail, Green [7, 17]: 100
- Plant response rating, Foxtail, Green [7, 18]: 100
- Plant response rating, Foxtail, Green [7, 19]: 50
- Kochia plant response rating (kochia (Kochia scoparia); [13]): 70
- Plant response rating, Kochia (kochia (Kochia scoparia); [14]): 95
- Plant response rating, Kochia (kochia (Kochia scoparia); [15]): 100
- Plant response rating (scale of 0 to 100), Kochia (kochia (Kochia scoparia); Preemergence, 31 g ai/ha): 20
- Plant response rating, Kochia (kochia (Kochia scoparia); [16]): 60
- Plant response rating, Kochia (kochia (Kochia scoparia); [17]): 75
- Plant response rating, Kochia (kochia (Kochia scoparia); [18]): 100
- Plant response rating, Kochia (kochia (Kochia scoparia); [19]): 90
- Lambsquarters plant response rating [8, 13]: 80
- Plant response rating, Lambsquarters [8, 14]: 85
- Plant response rating, Lambsquarters [8, 15]: 90
- Plant response rating (scale of 0 to 100), Lambsquarters ([8]; Preemergence, 31 g ai/ha): 98
- Plant response rating, Lambsquarters [8, 16]: 100
- Plant response rating, Lambsquarters [8, 17]: 100
- Plant response rating, Lambsquarters [8, 18]: 100
- Plant response rating, Lambsquarters [8, 19]: 85
- Ryegrass, Italian plant response rating [9, 13]: 75
- Plant response rating, Ryegrass, Italian [9, 14]: 85
- Plant response rating, Ryegrass, Italian [9, 15]: 85
- Plant response rating (scale of 0 to 100), Ryegrass, Italian ([9]; Preemergence, 31 g ai/ha): 95
- Plant response rating, Ryegrass, Italian [9, 16]: 100
- Plant response rating, Ryegrass, Italian [9, 17]: 100
- Plant response rating, Ryegrass, Italian [9, 18]: 100
- Plant response rating, Ryegrass, Italian [9, 19]: 80
- Wheat, Spring plant response rating [10, 13]: 0
- Plant response rating, Wheat, Spring [10, 14]: 15
- Plant response rating, Wheat, Spring [10, 15]: 20
- Plant response rating (scale of 0 to 100), Wheat, Spring ([10]; Preemergence, 31 g ai/ha): 0
- Plant response rating, Wheat, Spring [10, 16]: 0
- Plant response rating, Wheat, Spring [10, 17]: 0
- Plant response rating, Wheat, Spring [10, 18]: 20
- Plant response rating, Wheat, Spring [10, 19]: 10
- Wheat, Winter plant response rating [11, 13]: 0
- Plant response rating, Wheat, Winter [11, 14]: 10
- Plant response rating, Wheat, Winter [11, 15]: 15
- Plant response rating (scale of 0 to 100), Wheat, Winter ([11]; Preemergence, 31 g ai/ha): 0
- Plant response rating, Wheat, Winter [11, 16]: 0
- Plant response rating, Wheat, Winter [11, 17]: 5
- Plant response rating, Wheat, Winter [11, 18]: 15
- Plant response rating, Wheat, Winter [11, 19]: 5
- Windgrass plant response rating [12, 13]: 70
- Plant response rating, Windgrass [12, 14]: 90
- Plant response rating, Windgrass [12, 15]: 98
- Plant response rating (scale of 0 to 100), Windgrass ([12]; Preemergence, 31 g ai/ha): 70
- Plant response rating, Windgrass [12, 16]: 85
- Plant response rating, Windgrass [12, 17]: 85
- Plant response rating, Windgrass [12, 18]: 100
- Plant response rating, Windgrass [12, 19]: 75

Reference: patent US10597388B2, “Pyridazinone herbicides” (FMC CORPORATION, priority 2014, dated 2020)
